From ChEMBL document CHEMBL1201862, “PubChem BioAssay data set” (2004) come the findings set out here.

Assay [1] has as its target T1, Heat shock factor protein 1 (Mus musculus, UniProt P38532).
T1 sequence (P38532 whole entry): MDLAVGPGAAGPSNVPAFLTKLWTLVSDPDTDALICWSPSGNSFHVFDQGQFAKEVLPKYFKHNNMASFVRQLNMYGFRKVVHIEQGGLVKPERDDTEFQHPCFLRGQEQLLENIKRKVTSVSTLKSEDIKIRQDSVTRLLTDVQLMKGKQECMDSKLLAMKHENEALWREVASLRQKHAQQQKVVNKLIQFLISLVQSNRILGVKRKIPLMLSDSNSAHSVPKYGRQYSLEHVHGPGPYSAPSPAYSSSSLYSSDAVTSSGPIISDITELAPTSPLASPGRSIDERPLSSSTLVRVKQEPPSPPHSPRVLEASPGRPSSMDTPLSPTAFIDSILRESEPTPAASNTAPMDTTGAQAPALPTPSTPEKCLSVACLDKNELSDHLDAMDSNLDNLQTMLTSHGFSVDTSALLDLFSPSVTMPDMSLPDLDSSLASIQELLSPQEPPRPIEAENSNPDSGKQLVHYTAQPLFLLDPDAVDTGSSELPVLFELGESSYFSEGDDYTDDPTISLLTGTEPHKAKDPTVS
The assay can be described thus: decrease of HSF1-responsive luciferase luminescence – cell-based, NIH3T3, dose retest, confirmation (AID 2382).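 Further: NIH3T3 fibroblasts with HSF1-driven luciferase reporter stressed by proteasome inhibitor MG132; luminescence from HSF1-driven luciferase expression after 8 hours of MG132 stress.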 Format: functional.

A further assay deals with Cytochrome P450 2C19 (Homo sapiens, UniProt P33261). The assay can be described thus: Cytochrome panel assay with activity outcomes. Panel member name: p450-cyp2c19 Compounds with AC50 equal or less than 10 uM are considered active. As to conditions: read-out: AC50. Format: functional.
The next assay concerns the target Cytochrome P450 2C9 (Homo sapiens, UniProt P11712).
The target of assay [2] is T1, Heat shock factor protein 1. Description: enhancement of HSF1-driven luciferase signal – cell-based, NIH3T3, luminescence, dose retest, confirmation (AID 435004).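 Further: stress induced by proteasome inhibitor MG132 added 30 min after compound; luciferase reporter driven by HSF1 response element in NIH3T3 cells; actives raise luminescence as potentiators of the MG132 stress response.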 The class given is functional.
Assay [3] is described as follows: Luminescence Cell-Based Dose Retest to Confirm Inhibitors of Cancer Stem Cells. [Related pubchem assays (depositor defined):AID2717, AID2721]. Format: functional, Homo sapiens. As to conditions: Homo sapiens.
In the next assay the target is T2, Streptokinase A (Streptococcus pyogenes serotype M1, UniProt P10520).
T2 sequence (P10520 whole entry): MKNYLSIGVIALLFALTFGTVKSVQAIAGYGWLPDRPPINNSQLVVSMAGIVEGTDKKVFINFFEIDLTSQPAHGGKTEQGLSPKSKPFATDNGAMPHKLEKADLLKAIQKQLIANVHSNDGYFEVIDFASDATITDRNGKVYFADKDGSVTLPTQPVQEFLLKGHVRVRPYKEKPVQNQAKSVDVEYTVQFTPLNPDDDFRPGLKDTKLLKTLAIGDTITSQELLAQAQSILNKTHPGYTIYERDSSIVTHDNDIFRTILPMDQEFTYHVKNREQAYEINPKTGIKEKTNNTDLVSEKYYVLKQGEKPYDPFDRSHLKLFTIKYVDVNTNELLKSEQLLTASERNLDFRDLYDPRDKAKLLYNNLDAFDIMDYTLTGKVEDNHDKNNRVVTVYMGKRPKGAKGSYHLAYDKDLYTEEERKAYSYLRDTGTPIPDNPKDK
The assay can be described thus: viability-normalized secreted streptokinase activity reduction – plasminogen activation absorbance, OD405, dose response (AID 1914).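 Further: secreted streptokinase activity via plasminogen activation per viability signal from cell pellet.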 Format: functional, Streptococcus pyogenes M1 GAS.

The subject of another assay is Streptococcus. The assay can be described thus: GAS UMAA2166 growth inhibition – luminescence, BacTiterGlo, counter-screen for streptokinase expression inhibitor project, dose response (AID 1915).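 Further: potency for reduction of bacterial viability or growth.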 Format: functional, organism-based. In general terms: The purpose of a counterscreen is to sort out artefacts and off-target activity.
In assay [4] the test system is Streptococcus sp. 'group A'. Description: Streptococcus pyogenes SK(-)GAS viability under kanamycin – luminescence, BacTiterGlo, confirmation, counter-screen for streptokinase expression inhibitor project, dose response (AID 1900). Format: functional, organism-based. As to conditions: read-out: EC50.
In another assay the target is Cytochrome P450 3A4 (Homo sapiens, UniProt P08684).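 Further: CYP3A4 tested as one member of a cytochrome P450 panel screen.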
The nature of assay [5]: alpha-synuclein stem-loop luciferase translation blockers – H4 neuroglioma cells, luminescence, confirmation (AID 1988). Format: functional, cell-based.
The nature of assay [6]: luciferase reporter signal suppression in cells – H4 neuroglioma cells, luminescence, dose response (AID 1990). Format: functional, cell-based.
The nature of assay [7]: Luminescence Cell-Based Dose Response HTS to Identify Inhibitors of 5'UTR Stem-Loop Driven Prion Protein mRNA Translation in H4 Neuroglioblastoma Cells. [Related pubchem assays: 1827 (Project Summary), 1813 (Primary HTS)]. Format: functional.
Assay [8] can be described thus: Trypanosoma cruzi growth suppression in host cells – NIH3T3 host cells, beta-gal luminescence, confirmation (AID 2044).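 Further: intracellular parasites grown in NIH/3T3 mouse fibroblasts as host cells; luminescent beta-galactosidase reporter signal from transgenic T. cruzi replicating inside host cells; inhibitors lower the luminescence signal.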 The class given is functional, cell-based.
Assay [9] in a line: NIH3T3 cell viability loss – ATP luminescence, mouse fibroblasts, counter-screen, dose response (AID 2010).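 Further: cells exposed to compound for about 90 hours before reading.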 The class given is functional, cell-based.

Each structure is given as a SMILES string. Activity calls are given as the source filed them.

Chain of Cytochrome P450 2C19 (P33261 whole entry): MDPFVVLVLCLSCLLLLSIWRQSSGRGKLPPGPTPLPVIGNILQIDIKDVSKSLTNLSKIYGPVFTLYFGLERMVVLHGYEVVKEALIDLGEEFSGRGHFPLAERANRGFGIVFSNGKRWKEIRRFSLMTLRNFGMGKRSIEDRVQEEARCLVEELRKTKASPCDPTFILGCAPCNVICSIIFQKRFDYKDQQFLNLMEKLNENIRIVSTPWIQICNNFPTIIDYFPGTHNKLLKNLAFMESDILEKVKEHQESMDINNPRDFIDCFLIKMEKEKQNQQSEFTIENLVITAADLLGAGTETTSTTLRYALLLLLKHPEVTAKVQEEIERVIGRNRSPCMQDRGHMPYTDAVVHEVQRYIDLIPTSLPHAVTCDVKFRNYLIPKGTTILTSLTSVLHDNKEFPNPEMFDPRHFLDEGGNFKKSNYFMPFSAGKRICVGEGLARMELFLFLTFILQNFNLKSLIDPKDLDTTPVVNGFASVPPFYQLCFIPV
Chain of Cytochrome P450 3A4 (P08684 whole entry): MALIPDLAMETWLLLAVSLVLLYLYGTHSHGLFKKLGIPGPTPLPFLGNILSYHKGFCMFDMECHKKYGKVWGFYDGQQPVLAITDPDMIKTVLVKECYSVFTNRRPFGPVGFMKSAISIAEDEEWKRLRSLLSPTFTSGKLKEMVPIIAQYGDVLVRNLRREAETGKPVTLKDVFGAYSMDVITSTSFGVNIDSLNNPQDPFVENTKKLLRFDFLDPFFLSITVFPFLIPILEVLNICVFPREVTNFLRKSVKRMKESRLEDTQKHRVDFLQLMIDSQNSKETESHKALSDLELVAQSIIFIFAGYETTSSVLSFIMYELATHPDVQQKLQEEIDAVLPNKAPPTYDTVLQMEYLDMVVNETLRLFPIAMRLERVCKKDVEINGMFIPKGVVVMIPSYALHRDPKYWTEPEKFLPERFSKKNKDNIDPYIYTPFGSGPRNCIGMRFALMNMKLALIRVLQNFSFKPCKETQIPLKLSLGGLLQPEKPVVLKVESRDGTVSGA
Chain of Cytochrome P450 2C9 (P11712 whole entry): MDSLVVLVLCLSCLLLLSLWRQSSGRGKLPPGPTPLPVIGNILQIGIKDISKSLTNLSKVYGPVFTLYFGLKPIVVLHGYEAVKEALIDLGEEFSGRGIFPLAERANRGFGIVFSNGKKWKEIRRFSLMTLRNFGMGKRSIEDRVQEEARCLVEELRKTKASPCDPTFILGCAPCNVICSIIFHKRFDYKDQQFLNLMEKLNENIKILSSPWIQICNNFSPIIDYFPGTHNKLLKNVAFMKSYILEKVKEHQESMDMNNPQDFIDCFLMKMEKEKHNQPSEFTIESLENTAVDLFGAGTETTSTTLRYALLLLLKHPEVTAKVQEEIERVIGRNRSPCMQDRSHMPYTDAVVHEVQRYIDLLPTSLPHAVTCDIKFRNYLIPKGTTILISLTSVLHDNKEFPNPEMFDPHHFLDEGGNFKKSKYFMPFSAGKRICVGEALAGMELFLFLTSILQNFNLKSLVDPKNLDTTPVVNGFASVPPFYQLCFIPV

As to `C=CCNC(=S)Nc1sc2c(c1C#N)CCCC2`, the EC50 in assay [1] is listed as > 195 µM (not active).
Take `CCCn1nc2cc(C(=O)NCc3ccc(C)cc3)ccc2c1OC`: the values for the AC50 at Cytochrome P450 2C19 and on Cytochrome P450 2C9 were 22.4 µM (inconclusive) and 20 µM (inconclusive), respectively.
For `COCCNC(=O)Cn1cnc2c1c(=O)n(C)c(=O)n2C`, the EC50 in [2] is > 260 µM (inactive).
Take `S=C(Nc1cccc(Cl)c1)N(CCCN1CCCC1)Cc1cccn1Cc1ccc(Cl)cc1`: the AC50 in [3] is 6.16 µM (active). The EC50 in [2] was > 120 µM (inactive).
With `COc1ccc(CNCC(O)COc2ccc(C(C)(C)c3ccccc3)cc2)cc1` (stereo unspecified), in [3], the AC50 was 3.38 µM (active). The EC50 in [2] is > 260 µM (inactive).
For `O=C(NCc1ccco1)c1ccccc1-c1ccc(C(F)(F)F)cc1`, in assay [1], the EC50 is on record as > 195 µM (not active).
On the same count and under the same terms, to `CCOC(=O)N1CCN(C(=O)C2CCN(Cc3ccc(OC)cc3OC)CC2)CC1` belongs > 195 µM (not active).
Consider `COc1ccc(Oc2nc(-c3ccccn3)nc3ccccc23)cc1`, for which the results for the EC50 (on Streptokinase A; in the assay with Streptococcus; in assay [4]) were > 150 µM (not active), > 150 µM (not active) and 17.1 µM (active), respectively.
For the compound `COCC1CCN(C(=O)c2ccc3oc(Cc4ccccc4)nc3c2)C1` (stereo unspecified), the concentration for a half-maximal effect (EC50) (at Streptokinase A; with Streptococcus; in assay [4]) was > 150 µM (not active) each time.
On to `CCOC(=O)C[n+]1c(C)csc1C`, for which, in assay [1], the EC50 is given as > 195 µM (not active).
For the compound `N/C(S)=N/CCC[C@@H](N)C(=O)O`, the results for the AC50 on Cytochrome P450 3A4 and at Cytochrome P450 2C9 were 0.2 µM (inconclusive) and 15.8 µM (inconclusive), respectively.
With `NC(=O)Cc1ccc2c(c1)[nH]c1ccccc12`, the EC50 in [2] was > 260 µM (inactive).
For the compound `COc1ccccc1CNC(=O)C(C)NS(=O)(=O)c1ccc(Br)cc1` (stereo unspecified), in assay [1], the concentration giving a half-maximal response (EC50) is recorded as > 195 µM (not active).
In the case of `COc1ccc(CNC(=O)Oc2ccccc2)cc1Cl`, in assay [2], the EC50 is 62.3 µM (active).
For the compound `CCc1n[nH]c2c1C1(CCN(C(=O)OCc3ccccc3)CC1)C(C#N)=C(N)O2`, the 50% effective concentration (EC50) in assay [2] was 33.9 µM (active).
With `Cc1cc(C)c(C2C3=C(Nc4c2c(C)nn4-c2ccccn2)c2ccccc2C3=O)c(C)c1` (stereo unspecified), the EC50 is 22.2 µM (active) on Streptokinase A; 19.9 µM (active) in [5]; 17 µM (active) in [6]; > 120 µM (not active) in assay [7]; 128 µM (active) with Streptococcus; 7.61 µM (active) in assay [4].
On to `CC(C)c1ccc(C(=O)CC2(O)C(=O)N(CN3CCOCC3)c3ccccc32)cc1` (stereo unspecified), for which the AC50 at Cytochrome P450 2C9 is 12.6 µM (inconclusive).
As for `CCN(CC)S(=O)(=O)c1cccc(C(=O)N[C@H](C(=O)OCC(=O)NC(=O)NC)C(C)C)c1`, the concentration at half-maximal activity (AC50) was 14.1 µM (inconclusive) at Cytochrome P450 3A4 and 0.708 µM (inconclusive) on Cytochrome P450 2C9.
Take `O=C(Cn1nc(-c2ccccc2)ccc1=O)N1CCCCC1`: the EC50 in assay [1] is > 195 µM (not active).
Take `C=CCn1c(S)nnc1-c1cccc2ccccc12`: in [1], the EC50 is listed as > 195 µM (not active).
In the case of `CS(=O)(=O)c1ccc(NC(=O)c2ccc3c(c2)S(=O)(=O)N=C2CCCCCN23)cc1`, the EC50 in assay [1] is > 195 µM (not active).
For the compound `CCCCOCCCN1CC(=O)N2[C@@H](Cc3c([nH]c4ccccc34)C2(C)C)C1=O`, in assay [2], the EC50 was > 260 µM (inactive).
As for `CC[C@H]1C2=C3C(CC[C@H]4C(OCc5ccc(F)cc5C(F)(F)F)OC[C@](C)([C@@H]34)N(C(=O)OC(C)(C)C)C2)C(COC(C)=O)C1COC(C)=O` (stereo partly specified), the AC50 is 2.51 µM (inconclusive) at Cytochrome P450 3A4, 15.8 µM (inconclusive) at Cytochrome P450 2C19 and 31.6 µM (inconclusive) at Cytochrome P450 2C9.
Turning to `N#Cc1cnn2c(=O)c3c([nH]c12)CCCC3`, the AC50 on Cytochrome P450 2C9 was 11.2 µM (inconclusive).
`COc1cccc(C(=O)c2c[nH]c(C(=O)NCc3ccco3)c2)c1`: the EC50 in assay [1] was 19.9 µM (active).
On the same count and under the same terms, then `O=C(Cn1cc([N+](=O)[O-])cn1)NCC1CCCO1` (stereo unspecified), with > 195 µM (not active).
Consider `Cn1c(=O)c2cn(-c3ccccc3)cc2n(C)c1=O`, for which the AC50 at Cytochrome P450 2C19 is 17.8 µM (inconclusive); on Cytochrome P450 2C9, 25.1 µM (inconclusive).
In the case of `CC(C)[C@@]1(NC(=O)[C@@H]2C[C@H]3c4cccc5[nH]cc(c45)C[C@@H]3N(C)C2)O[C@]2(O)[C@H]3CCCN3C(=O)CN2C1=O`, the values for the concentration at half-maximal activity (AC50) on Cytochrome P450 2C19 and on Cytochrome P450 2C9 were 5.01 µM (inconclusive) and 6.31 µM (inconclusive), respectively.
As for `O=C1c2ccccc2C(O)N1c1ccccc1` (stereo unspecified), the EC50 in [1] is > 195 µM (not active).
For the compound `C/C(Cl)=C/Cc1c(C)nc2ccc(C)cc2c1O`, the 50% effective concentration (EC50) in assay [8] was 0.324 µM (active); in assay [9], > 30 µM (not active); in [2], > 260 µM (inactive).
As for `CCc1ccc(CN(C)Cc2nc(-c3cccc(Cl)c3)no2)nc1`, the EC50 on Streptokinase A was > 150 µM (not active); with Streptococcus it was > 150 µM (not active); in assay [4], 18.4 µM (active).
For the compound `CSCC[C@H](NC(=O)N1CCn2c1nc1ccccc12)C(=O)NCc1ccc(F)cc1`, the EC50 in assay [2] was > 260 µM (inactive).
Regarding `Cc1ccc(N2C(=O)N(CC(=O)NC(N)=O)C(=O)C2C)cc1` (stereo unspecified), the EC50 in [1] is listed as > 195 µM (not active).
Regarding `O=C(CCn1nc(-c2ccc(Cl)cc2)ccc1=O)N1CCOCC1`, the AC50 was 25.1 µM (inconclusive) at Cytochrome P450 3A4 and 10 µM (inconclusive) at Cytochrome P450 2C9.
In the case of `CCOC(=O)c1c[nH]nc1C(F)(F)F`, the EC50 in assay [2] is > 260 µM (inactive).
With `Cc1cccc(Nc2nc(N)nc(CN3CCN(c4ccccc4F)CC3)n2)c1`, the EC50 was > 150 µM (not active) on Streptokinase A, 45.8 µM (active) in the assay on Streptococcus and 7.31 µM (active) in [4].
For `COc1ccc(-c2csc(NC(=O)c3ccc(C(C)(C)C)cc3)c2C(=O)O)cc1`, the EC50 was 3.12 µM (inconclusive) at Streptokinase A; 11.5 µM (active) in assay [5]; 14.5 µM (active) in [6]; 4.3 µM (active) in assay [7]; 7.24 µM (active) in the assay on Streptococcus; 1.75 µM (active) in assay [4].
As for `O=C(NCCc1cccc(Cl)c1)c1cc2ccccc2oc1=O`, the EC50 in assay [2] is > 260 µM (inactive).
For `CC(=O)[C@]1(O)CC[C@@H]2[C@H]3C[C@@H](C)C4=CC(=O)CC[C@@]4(C)[C@H]3[C@@H](O)C[C@]21C`, the values for the AC50 on Cytochrome P450 3A4 and at Cytochrome P450 2C9 were 3.98 µM (inconclusive) and 7.94 µM (inconclusive), respectively.
On to `Cc1oc2ccc(OCc3c(F)cccc3Cl)cc2c1C(=O)O`, for which, in assay [1], the EC50 is recorded as > 195 µM (not active).

What is called EC50 is the concentration giving half of the maximal effect. A word on the AC50: it is the concentration giving half of the maximal activity seen.
